Test results as given in patent US12612412B2, “Antiviral heterocyclic compounds” (Enanta Pharmaceuticals, Inc., priority 2021, dated 2026).

test system: genotype A, "Long" strain RSV; test: RSV-A assay (CPE protection in Hep-2 cells, ATPlite readout); assay type: cell-based, Human respiratory syncytial virus (HRSV); details: human respiratory syncytial virus, genotype A “Long” strain RSV, MOI 0.1, CPE protection, read-out: Human RSV-A (“Long”)
Text: Hep-2 cells, (originally derived from tumors grown in irradiated-cortisonised weanling rats that had been injected with epidermoid carcinoma tissue from the larynx of a person, but later found to be indistinguishable from HeLa cells by PCR DNA analysis), were used for the culturing of genotype A, “Long” strain RSV. Flasks were inoculated with RSV and viral stocks were collected once cytopathic effect (CPE) was greater than 90%. Viral stocks in 25% sucrose media were snap frozen using liquid nitrogen to increase viral stability. Viral stock titers were quantified by tissue culture infectious dose 50% (TCID50) using 8,000 cells per well and 3-fold viral dilutions across a 96-well plate, cultured for 4 days. Viral stock titers were also quantified by a plaque forming unit assay, as described elsewhere.
Following extensive parameter testing, the final assay is run as follows: Hep-2 cells are seeded into the inner 60 wells of a 96-well plate at 8,000 cells per well in a volume of 50 μL using Growth Media (DMEM without phenol red, 1% L-Glut, 1% Penn/Strep, 1% nonessential amino acids, 10% heat-inactivated FBS). 2-fold serial dilutions of control and test compounds are added to the wells in duplicate in a total volume of 25 μL. Viral stock is then added to the wells at a multiplicity of infection (MOI) of 0.1 in a volume of 25 μL, bringing the total volume of each well to 100 μL. The MOI is calculated using the PFU/mL, or TCID50 if unavailable. Each 96-well plate has a control column of 6 wells with cells and virus but no compound (negative control, max CPE), a column with cells but no compound or virus (positive control, minimum CPE), and a column with no cells or virus or compound (background plate/reagent control). The control wells with cells but no virus are given an additional 25 μL of growth media containing an equal quantity of sucrose as those wells receiving the viral stock in order to keep consistent in media and volume conditions. The outer wells of the plate are filled with 125 μL of moat media (DMEM, 1% Penn/Strep) to act as a thermal and evaporative moat around the test wells. Following a 5-day incubation period, the plates are read using ATPlite (50 uL added per well), which quantifies the amount of ATP (a measure of cell health) present in each well. Assay plates are read using the Envision luminometer. […] EC50 ranges are as follows: A<0.2 μM; B>0.2 μM.

| SMILES | EC50 [nM] |
| --- | --- |
| C[C@]1(C(N)=O)COc2c1cc([C@@](O)(CNC(=O)c1cc(F)c3cnn(C4CC4)c3c1)C(F)(F)F)nc2-c1ccc(F)cc1 [Example 146] | > 200 |
| COc1cc(C(=O)NC[C@](O)(c2cc3c(c(-c4ccc(F)cc4)n2)OC[C@]3(C)C(N)=O)C(F)(F)F)ccc1OC[C@@H](C)N [Example 150] | > 200 |
| CN[C@H](C)COc1ccc(C(=O)NC[C@](O)(c2cc3c(c(-c4ccc(F)cc4)n2)OC[C@]3(C)C(N)=O)C(F)(F)F)cc1OC [Example 151] | > 200 |
| C[C@]1(C(N)=O)COc2c1cc([C@@](O)(CNC(=O)c1ccc3nc(NC(=N)N)sc3c1)C(F)(F)F)nc2-c1ccc(F)cc1 [Example 159] | < 200 |
| C[C@]1(C(N)=O)COc2c1cc([C@@](O)(CNC(=O)c1ccc3nc(NCCO)sc3c1)C(F)(F)F)nc2-c1ccc(F)cc1 [Example 162] | > 200 |
| C[C@H](O)CNc1nc2ccc(C(=O)NC[C@](O)(c3cc4c(c(-c5ccc(F)cc5)n3)OC[C@]4(C)C(N)=O)C(F)(F)F)cc2s1 [Example 163] | < 200 |
| C[C@@H](O)CNc1nc2ccc(C(=O)NC[C@](O)(c3cc4c(c(-c5ccc(F)cc5)n3)OC[C@]4(C)C(N)=O)C(F)(F)F)cc2s1 [Example 164] | < 200 |
| Cc1cc2cc(C(=O)NC[C@](O)(c3cc4c(c(-c5ccc(F)cc5)n3)OC[C@]4(C)C(N)=O)C(F)(F)F)ccc2[nH]1 [Example 171] | < 200 |
| CCn1ncc2cc(C(=O)NC[C@](O)(c3cc4c(c(-c5ccc(F)cc5)n3)OC[C@]4(C)C(N)=O)C(F)(F)F)cc(Cl)c21 [Example 172] | > 200 |
| CCn1cc2cc(C(=O)NC[C@](O)(c3cc4c(c(-c5ccc(F)cc5)n3)OC[C@]4(C)C(N)=O)C(F)(F)F)cc(Cl)c2n1 [Example 173] | < 200 |
| Cc1cc2cc(C(=O)NC[C@](O)(c3cc4c(c(-c5ccc(F)cc5)n3)OC[C@]4(C)C(N)=O)C(F)(F)F)ccc2n1C [Example 175] | > 200 |
| Cn1ccc2cc(C(=O)NC[C@](O)(c3cc4c(c(-c5ccc(F)cc5)n3)OC[C@]4(C)C(N)=O)C(F)(F)F)ccc21 [Example 176] | > 200 |
| COc1cc(C(=O)NC[C@](O)(c2cc3c(c(-c4ccc(F)cc4)n2)OC[C@]3(C)C(N)=O)C(F)(F)F)nc2cc(C)nn12 [Example 180] | > 200 |
| Cc1cc2nc(C(=O)NC[C@](O)(c3cc4c(c(-c5ccc(F)cc5)n3)OC[C@]4(C)C(N)=O)C(F)(F)F)cc(C)n2n1 [Example 181] | > 200 |
| C[C@]1(C(N)=O)COc2c1cc([C@@](O)(CNC(=O)c1ccc3cc(C4CC4)cn3c1)C(F)(F)F)nc2-c1ccc(F)cc1 [Example 185] | > 200 |
| C[C@]1(C(N)=O)COc2c1cc([C@@](O)(CNC(=O)c1ccc3nc(C4CC4)cn3n1)C(F)(F)F)nc2-c1ccc(F)cc1 [Example 186] | > 200 |
| C[C@]1(C(N)=O)COc2c1cc([C@@](O)(CNC(=O)c1ccc3nc(NC(=O)[C@@H](N)CO)sc3c1)C(F)(F)F)nc2-c1ccc(F)cc1 [Example 187] | < 200 |
| Cc1cc2ccc(C(=O)NC[C@](O)(c3cc4c(c(-c5ccc(F)cc5)n3)OC[C@]4(C)C(N)=O)C(F)(F)F)cn2c1 [Example 189] | > 200 |
| C[C@]1(C(N)=O)COc2c1cc([C@@](O)(CNC(=O)c1ccc3sc(N)nc3c1)C(F)(F)F)nc2-c1ccc(F)cc1 [Example 190] | > 200 |
| C[C@]1(C(N)=O)COc2c1cc([C@@](O)(CNC(=O)c1ccc3oc(N)nc3c1)C(F)(F)F)nc2-c1ccc(F)cc1 [Example 191] | < 200 |
| COc1cc(C(=O)NC[C@](O)(c2cc3c(c(-c4ccc(F)cc4)n2)OC[C@]3(C)C(N)=O)C(F)(F)F)nc2cc(C3CC3)nn12 [Example 192] | > 200 |
| C[C@]1(C(N)=O)COc2c1cc([C@@](O)(CNC(=O)c1ccc3[nH]c(C4CC4)nc3c1)C(F)(F)F)nc2-c1ccc(F)cc1 [Example 193] | > 200 |
| Cc1cc(C(=O)NC[C@](O)(c2cc3c(c(-c4ccc(F)cc4)n2)OC[C@]3(C)C(N)=O)C(F)(F)F)cc2nc[nH]c12 [Example 194] | < 200 |
| C[C@]1(C(N)=O)COc2c1cc([C@@](O)(CNC(=O)c1cc(Br)c3[nH]cnc3c1)C(F)(F)F)nc2-c1ccc(F)cc1 [Example 195] | < 200 |

| SMILES | EC50 [nM] |
| --- | --- |
| C[C@]1(C(N)=O)COc2c1cc([C@@](O)(CNC(=O)c1ccc3cc[nH]c3c1)C(F)(F)F)nc2-c1ccc(F)cc1 [Example 196] | > 200 |
| C[C@]1(C(N)=O)COc2c1cc([C@@](O)(CNC(=O)c1cc(F)c3[nH]ccc3c1)C(F)(F)F)nc2-c1ccc(F)cc1 [Example 197] | < 200 |
| C[C@]1(C(N)=O)COc2c1cc([C@@](O)(CNC(=O)c1cnn3cccc3c1Cl)C(F)(F)F)nc2-c1ccc(F)cc1 [Example 198] | > 200 |
| C[C@]1(C(N)=O)COc2c1cc([C@@](O)(CNC(=O)c1cnn3cccc3c1)C(F)(F)F)nc2-c1ccc(F)cc1 [Example 201] | > 200 |
| C[C@]1(C(N)=O)COc2c1cc([C@@](O)(CNC(=O)c1cc(Br)c3oc(N)nc3c1)C(F)(F)F)nc2-c1ccc(F)cc1 [Example 202] | < 200 |
| C[C@]1(C(N)=O)COc2c1cc([C@@](O)(CNC(=O)c1cc(Br)c3nc(N)oc3c1)C(F)(F)F)nc2-c1ccc(F)cc1 [Example 203] | < 200 |
| C[C@]1(C(N)=O)COc2c1cc([C@@](O)(CNC(=O)c1cc(Br)c3[nH]c(C4CC4)nc3c1)C(F)(F)F)nc2-c1ccc(F)cc1 [Example 204] | < 200 |
| C[C@]1(C(N)=O)COc2c1cc([C@@](O)(CNC(=O)c1ccc3[nH]c(C4CC4)cc3c1)C(F)(F)F)nc2-c1ccc(F)cc1 [Example 205] | > 200 |
| C[C@]1(C(N)=O)COc2c1cc([C@@](O)(CNC(=O)c1cc(OC3CC3)c3[nH]ccc3c1)C(F)(F)F)nc2-c1ccc(F)cc1 [Example 206] | < 200 |
| COc1ccccc1-c1cc(C(=O)NC[C@](O)(c2cc3c(c(-c4ccc(F)cc4)n2)OC[C@]3(C)C(N)=O)C(F)(F)F)n[nH]1 [Example 207] | > 200 |
| COc1cccc(-c2cc(C(=O)NC[C@](O)(c3cc4c(c(-c5ccc(F)cc5)n3)OC[C@]4(C)C(N)=O)C(F)(F)F)n[nH]2)c1 [Example 208] | > 200 |
| COc1ccc(-c2cc(C(=O)NC[C@](O)(c3cc4c(c(-c5ccc(F)cc5)n3)OC[C@]4(C)C(N)=O)C(F)(F)F)n[nH]2)cc1 [Example 209] | > 200 |
| C[C@]1(C(N)=O)COc2c1cc([C@@](O)(CNC(=O)c1cc3c(OC(F)F)cccc3[nH]1)C(F)(F)F)nc2-c1ccc(F)cc1 [Example 211] | < 200 |
| C[C@]1(C(N)=O)COc2c1cc([C@@](O)(CNC(=O)c1nc(-c3ccccc3)c[nH]1)C(F)(F)F)nc2-c1ccc(F)cc1 [Example 212] | > 200 |
| COc1cccc(-n2ccc(C(=O)NC[C@](O)(c3cc4c(c(-c5ccc(F)cc5)n3)OC[C@]4(C)C(N)=O)C(F)(F)F)n2)c1 [Example 213] | > 200 |
| COc1ccccc1-c1nc(C(=O)NC[C@](O)(c2cc3c(c(-c4ccc(F)cc4)n2)OC[C@]3(C)C(N)=O)C(F)(F)F)c[nH]1 [Example 214] | > 200 |
| CC(C)(O)CNC(=O)Nc1cc(C(=O)NC[C@](O)(c2cc3c(c(-c4ccc(F)cc4)n2)OC[C@]3(C)C(N)=O)C(F)(F)F)cc2cc(C3CC3)cnc12 [Example 215] | < 200 |
| Cc1cnc2c(NC(=O)OC3CC3)cc(C(=O)NC[C@](O)(c3cc4c(c(-c5ccc(F)cc5)n3)OC[C@]4(C)C(N)=O)C(F)(F)F)cc2c1 [Example 216] | < 200 |
| COc1cc(C(=O)NC[C@](O)(c2cc3c(c(-c4ccc(F)cc4)n2)OC[C@]3(C)C(N)=O)C(F)(F)F)cc2c1NC(=O)C2 [Example 225] | < 200 |
| Cc1cnc2c(NC(=O)NC34CC(O)(C3)C4)cc(C(=O)NC[C@](O)(c3cc4c(c(-c5ccc(F)cc5)n3)OC[C@]4(C)C(N)=O)C(F)(F)F)cc2c1 [Example 227] | < 200 |
| COc1cc(C(=O)NC[C@](O)(c2cc3c(c(-c4ccc(F)c(Cl)c4)n2)OC[C@]3(C)C(N)=O)C(F)(F)F)cc2cc(Cl)c(C)nc12 [Example 228] | < 200 |
| COc1cnc2ccc(C(=O)NC[C@](O)(c3cc4c(c(-c5ccc(F)cc5)n3)OC[C@]4(C)C(N)=O)C(F)(F)F)cc2c1 [Example 229] | < 200 |
| COc1cc(C(=O)NC[C@](O)(c2cc3c(c(-c4ccc(F)cc4)n2)OC[C@]3(C)C(N)=O)C(F)(F)F)cc2cn(C3(C)CC3)nc12 [Example 232] | < 200 |
